{
  "source": "patent US20250164396A1",
  "about": "“METHOD FOR VISUALIZING DENATURED STATE OR AGGREGATED STATE OF PROTEIN” (TOHOKU UNIVERSITY, priority 2022, published 2025)",
  "key": {"[1]": {"molecular_target": "T1, bovine carbonic anhydrase (CAII) (Bos taurus, UniProt P00921)", "T1 construct": "purchased Aldrich C3934", "T1 sequence (P00921 whole entry)": "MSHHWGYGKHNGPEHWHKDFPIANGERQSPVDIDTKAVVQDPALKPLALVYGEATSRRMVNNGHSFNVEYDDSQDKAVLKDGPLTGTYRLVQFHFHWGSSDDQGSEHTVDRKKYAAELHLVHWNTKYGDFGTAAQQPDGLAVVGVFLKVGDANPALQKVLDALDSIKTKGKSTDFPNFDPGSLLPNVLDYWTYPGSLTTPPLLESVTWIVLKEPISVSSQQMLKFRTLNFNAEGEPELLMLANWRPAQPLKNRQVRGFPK", "test": "Detection of heat-denatured CAII in HEK293FT cell disruption solution by two-dimensional electrophoresis, with or without ligand", "assay_type": "binding", "experimental": "Thereafter, centrifugation was performed at 14,000×g for 10 minutes, and the supernatant was collected. […] The PCR tube was heated in a thermal cycler (Applied Biosystems, Mini Amp Plus) at 65° C. for 5 minutes and then allowed to stand at room temperature. The subsequent protocol to prepare two-dimensional electrophoresis samples was performed in the following two ways.\n(Protocol to collect all proteins) A sample was prepared according to the protocol of the ReadyPrep 2-D cleanup kit (Bio-Rad), and the final pellets obtained were dissolved in 15 μL of swelling buffer (containing ampolyte, pH: 3-10) included with the Auto2D Glycine Type Reagent Kit.\n(Protocol to collect pellets) The heated sample was centrifuged (at 20,000×g for 20 minutes), the supernatant was discarded, and the remaining pellets were dissolved in 15 μL of swelling buffer (containing ampolyte, pH: 3-10) included with the Auto2D Glycine Type Reagent Kit.\nTwo-dimensional electrophoresis was performed according to the long-term protocol of Auto 2D Plus (Merck), and fluorescence images of the resulting gel were obtained using a fluorescence imager (Vilver Lourmat, Fusion Solo S). […] The ONBD compound used was iPrONBD described above."}, "[2]": {"tested_on": "HSP90", "test": "Two-dimensional electrophoresis of probe-labelled HeLa lysate, denatured HSP90 with or without geldanamycin", "assay_type": "binding", "details": "probe 1 mM, geldanamycin 50 μM, 45° C. for 5 minutes, total protein; FIG. 18", "experimental": "HeLa cells were scraped with a scraper and washed three times with ice-cold PBS, and a protease inhibitor cocktail (Nacalai, 25955-24) was resuspended in ice-cold M-PER buffer (Thermo Fisher Scientific, 78503) and allowed to stand on ice for 10 minutes. After centrifugation at 20,000×g for 20 minutes at 4° C., the supernatant was separated from the cell lysate. The protein concentration was determined by using the BCA method. To the supernatant (2 mg/ml), the same amount of geldanamycin (TCI, […]; final concentration: 50 μM) and DMSO were added, followed by treatment at room temperature for 10 minutes. […] A stock solution (DMSO solution) of 100 mM iPrONBD was added to the sample to a final concentration of 1 mM and allowed to stand at 37° C. for 30 minutes, and the solution was then transferred to a PCR tube. The PCR tube was heated using a thermal cycler (MiniAmp Plus) at 45° C. for 5 minutes and then allowed to stand at room temperature. A sample was prepared according to the protocol of the ReadyPrep 2-D cleanup kit (Bio-Rad), and the final pellets obtained were dissolved in 15 μL of swelling buffer (containing ampolyte, pH: 3-10) included with the Auto2D Glycine Type Reagent Kit, followed by two-dimensional electrophoresis (FIG. 18)."}, "[3]": {"molecular_target": "T2, Bovine carbonic anhydrase (Bos taurus, UniProt P00921)", "T2 construct": "purchased Aldrich C3934", "T2 sequence (P00921 whole entry)": "as above", "test": "Fluorescence response of ONBD probes to heat denaturation of carbonic anhydrase", "details": "1 mM ONBD compound; heated from 25° C. by 5° C. every 180 seconds; FIG. 1", "experimental": "The PCR tube was heated with a protocol to increase the temperature by 5° C. every 180 seconds from 25° C. using a real-time PCR system (Takara Bio Inc., Thermal Cycler Dice, TP800). The fluorescence (FAM mode for ONBD compounds) was measured at the last 15 seconds of each step. Sypro Orange (Invitrogen S6650, 5000× concentration in DMSO) of the comparison target was added to a final concentration of 10×, the same operation was carried out, and the fluorescence was measured in ROX mode. The ONBD compounds used were the following five types: MeONBD, iPrONBD, nBuONBD, iBuONBD, and octylONBD."}, "[4]": {"tested_on": "HSP90", "test": "SDS-PAGE fluorescence detection of denatured HSP90 in HeLa cell lysate, with or without geldanamycin", "assay_type": "binding", "details": "probe 1 mM, geldanamycin 50 μM, each temperature for 5 minutes, pellet fraction; FIG. 16", "experimental": "HeLa cells were scraped with a scraper and washed three times with ice-cold PBS, and a protease inhibitor cocktail (Nacalai, 25955-24) was resuspended in ice-cold M-PER buffer (Thermo Fisher Scientific, 78503) and allowed to stand on ice for 10 minutes. After centrifugation at 20,000×g for 20 minutes at 4° C., the supernatant was separated from the cell lysate. The protein concentration was determined by using the BCA method. To the supernatant (2 mg/ml), the same amount of geldanamycin (TCI, […]; final concentration: 50 μM) and DMSO were added, followed by treatment at room temperature for 10 minutes. […] A stock solution (DMSO solution) of 100 mM ONBD was added to the sample to a final concentration of 1 mM and allowed to stand at 37° C. for 30 minutes, and the solution was then transferred to a PCR tube. The PCR tube was heated using a thermal cycler (MiniAmp Plus) at each temperature for 5 minutes and then allowed to stand at room temperature. The sample was centrifuged at 20,000×g for 15 minutes at 4° C. In 1D SDS-PAGE (Bio-Rad, 4-10% acrylamide gel) of the pellet fraction, SDS-PAGE was performed while mixing with 1×SDS sample buffer and heating for 5 minutes at 95° C. Using various probes, SDS-PAGE was performed in the same manner as in Example 17 under heating conditions of 45° C. for 5 minutes (FIG. 17). […]"}, "[5]": {"molecular_target": "T3, α-Synuclein fibril (Homo sapiens, UniProt P37840)", "T3 construct": "purchased Cosmo Bio Co., Ltd. SYN03", "test": "Quantification of aggregated state of α-synuclein fibril by probe fluorescence", "details": "500 nM fibril, 37° C.; FIG. 3", "experimental": "α-Synuclein fibril (Cosmo Bio Co., Ltd., SYN03) was diluted with 10 mM MES buffer (pH: 7.4) to prepare a 500 nM solution. The solution was dispensed in 50 μL portions in a 96-well half well black plate (Greiner, 675086). […] The fluorescence (using filters for Ex: […]) was measured in a plate reader (Teccan, Infinite 200 Pro F PLEX) under constant temperature conditions at 37° C. with plate shaking at 1 second per minute. The ONBD compounds used were three types: iPrONBD and octylONBD described above, as well as PEGONBD shown below."}},
  "data": [
    {"compound": "O=[N+]([O-])c1ccc(Br)c2nonc12", "note": "[Br-NBD]", "values": [
      {"measurement": "suitability as probe under the denaturation conditions", "setting": "[1]; 65° C., 5 minutes", "result": "appropriate probe"},
      {"measurement": "reduction in the fluorescence intensity of CA by brinzolamide, comparison of probes", "setting": "[1]; iPrONBD versus BrNDB, FIG. 15", "result": "the reduction in the fluorescence intensity of CA was more significant"}
    ]},
    {"compound": "CC(C)Oc1ccc([N+](=O)[O-])c2nonc12", "note": "[iPrONBD]", "values": [
      {"measurement": "visualization of ligand-induced change in heat denaturation resistance of HSP90 by probe fluorescence", "setting": "[2]", "result": "it was possible to visualize changes in the heat denaturation resistance of the target HSP90 by ligand addition"},
      {"measurement": "increase in the fluorescence intensity on heating", "setting": "[3]", "result": "the increase in the fluorescence intensity was significant"},
      {"measurement": "visualization of ligand-induced heat denaturation resistance of HSP90 by probe fluorescence", "setting": "[4]", "result": "it was possible to visualize the acquisition of target heat denaturation resistance by ligand addition"}
    ]},
    {"compound": "CCCCCCCCOc1ccc([N+](=O)[O-])c2nonc12", "note": "[octylONBD]", "values": [
      {"measurement": "increase in fluorescence intensity over time in the presence of α-synuclein fibril", "setting": "[5]", "result": "the increase in the fluorescence intensity was significant"}
    ]}
  ]
}
